Drawing on PubChem BioAssay (NCI), this text covers TGI and GI50 for 14 compounds.

Among the test systems are OVCAR-8 ovarian; SW-620 colon; TK-10 renal; MOLT-4 leukemia; SF-268 CNS; K-562 leukemia; IGROV1 ovarian; SF-539 CNS; HT29 colon; OVCAR-5 ovarian.
Common to all, as to assay: NCI-60 cell line screen, 48 h

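Exposure lasted 48 hours, with cells grown in 96-well plates and compounds tested at five concentrations. GI50 marks 50% less growth. TGI marks complete inhibition of growth.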 Some results are limits rather than exact numbers.

For the compound `COc1cc(OC)c(Oc2cccc(OC)c2OC)c(OC)c1`, the TGI with OVCAR-8 ovarian, in the assay on SW-620 colon, in the assay with TK-10 renal, with MOLT-4 leukemia, with SF-268 CNS and with K-562 leukemia was over 100 µM throughout. In addition, the TGI in the assay with IGROV1 ovarian, with SF-539 CNS, in the assay on HT29 colon and in the assay with OVCAR-5 ovarian was over 100 µM each time.
`COc1ccc(/C(C#N)=C/c2nc3c(N4CCOCC4)nc(Cl)nc3n2C)cc1OC`: the GI50 in the assay on OVCAR-8 ovarian is under 0.01 µM; in the assay with SW-620 colon it was under 0.01 µM; with TK-10 renal, 0.924 µM; in the assay on MOLT-4 leukemia it was 0.0251 µM; with SF-268 CNS, 0.0173 µM; with K-562 leukemia it was under 0.01 µM. Moreover, the GI50 in the assay with IGROV1 ovarian is under 0.01 µM; with SF-539 CNS, under 0.01 µM; in the assay with HT29 colon, under 0.01 µM; in the assay on OVCAR-5 ovarian it was under 0.0171 µM. Further, the TGI with OVCAR-8 ovarian was found to be 3.97 µM; with SW-620 colon it was 1.63 µM; in the assay on TK-10 renal, 2.33 µM; in the assay on MOLT-4 leukemia it was 2.89 µM; with SF-268 CNS, 2.23 µM; with K-562 leukemia it was 11.4 µM. The TGI in the assay on IGROV1 ovarian is 1.27 µM; in the assay on SF-539 CNS, under 0.01 µM; in the assay on HT29 colon, 1.4 µM; with OVCAR-5 ovarian, 2.32 µM.
Consider `Nc1nc(Cl)cc2c1ncn2C1OC(CO)C(O)C1O` (stereo not given), for which the GI50 in the assay on OVCAR-8 ovarian, in the assay on SW-620 colon, in the assay with TK-10 renal, in the assay with MOLT-4 leukemia, in the assay with SF-268 CNS and with K-562 leukemia was over 100 µM in each case. Also, the GI50 in the assay with IGROV1 ovarian, in the assay with SF-539 CNS, in the assay with HT29 colon and in the assay on OVCAR-5 ovarian was over 100 µM in each case. In addition, the TGI in the assay with OVCAR-8 ovarian, in the assay on SW-620 colon, in the assay on TK-10 renal, in the assay with MOLT-4 leukemia, in the assay on SF-268 CNS and with K-562 leukemia was over 100 µM throughout. Moreover, the TGI in the assay on IGROV1 ovarian, with SF-539 CNS, with HT29 colon and in the assay with OVCAR-5 ovarian was over 100 µM in each case.
As for `CC(CC(C)[C@H]1CCC2[C@H]3C(CC[C@@]21C)[C@@]1(C)CCC(O)C[C@H]1C[C@@H]3O)C(=O)O` (stereo not given in full), the TGI with OVCAR-8 ovarian, with SW-620 colon, in the assay with TK-10 renal, with MOLT-4 leukemia, with SF-268 CNS and in the assay with K-562 leukemia was over 100 µM in each case. The TGI in the assay on IGROV1 ovarian, in the assay on SF-539 CNS, with HT29 colon and in the assay on OVCAR-5 ovarian was over 100 µM throughout.
In the case of `O=C(O)CSc1ccn(Cc2ccccc2)c1`, the TGI with OVCAR-8 ovarian, with SW-620 colon, with TK-10 renal, with MOLT-4 leukemia, in the assay with SF-268 CNS and with K-562 leukemia was over 100 µM throughout. The TGI in the assay with IGROV1 ovarian, in the assay with SF-539 CNS, with HT29 colon and with OVCAR-5 ovarian was over 100 µM in each case.
Consider `N#CC1=C(N)Oc2c(sc3c(F)cccc23)C1c1ccc(Cl)cc1` (stereo not given), for which the GI50 in the assay on OVCAR-8 ovarian is 4.4 µM; in the assay with SW-620 colon, 3.47 µM; in the assay on TK-10 renal, 8.38 µM; in the assay with MOLT-4 leukemia it was 2.93 µM; in the assay with SF-268 CNS, 4.32 µM; in the assay with K-562 leukemia, 1.28 µM. Also, the GI50 is 3.43 µM with IGROV1 ovarian, 2.05 µM in the assay with SF-539 CNS, 3.17 µM in the assay on HT29 colon and 10.2 µM in the assay with OVCAR-5 ovarian. For the same compound, the TGI with OVCAR-8 ovarian was 18.7 µM; in the assay on SW-620 colon, 16.3 µM; with TK-10 renal, 24.3 µM; with MOLT-4 leukemia, 10.5 µM; in the assay on SF-268 CNS, 31.2 µM; with K-562 leukemia it was 16.3 µM. Further, the TGI with IGROV1 ovarian amounted to 17.1 µM; in the assay on SF-539 CNS, 5.59 µM; in the assay on HT29 colon it was 11.5 µM; in the assay with OVCAR-5 ovarian, 34 µM.
On to `Cn1c(=O)c(C2c3ccccc3Oc3c2c(=O)n(C)c2ccccc32)c(O)c2ccccc21` (stereo not given), for which the TGI was over 100 µM in the assay with OVCAR-8 ovarian; over 100 µM in the assay with SW-620 colon; 83.8 µM in the assay with TK-10 renal; over 100 µM with MOLT-4 leukemia; over 100 µM in the assay with SF-268 CNS; over 100 µM with K-562 leukemia. Besides, the TGI in the assay with IGROV1 ovarian, in the assay with SF-539 CNS, in the assay with HT29 colon and in the assay with OVCAR-5 ovarian was over 100 µM throughout.
For `COc1cc(C2C3=C(COC3=O)N(CCO)c3cc4c(cc32)OCCO4)cc(OC)c1O` (stereo not given), the GI50 with OVCAR-8 ovarian is 2.76 µM; in the assay with SW-620 colon it was 1.83 µM; with TK-10 renal, 6.61 µM; with MOLT-4 leukemia, 3.68 µM; with SF-268 CNS, 3.38 µM; with K-562 leukemia it was 1.89 µM. Besides, the GI50 in the assay with IGROV1 ovarian was 1.17 µM; in the assay with SF-539 CNS it was 1.22 µM; in the assay on HT29 colon, 1.67 µM; in the assay on OVCAR-5 ovarian, 49.9 µM. Besides, the TGI in the assay with OVCAR-8 ovarian, in the assay on SW-620 colon, with TK-10 renal, with MOLT-4 leukemia, with SF-268 CNS and with K-562 leukemia was over 50 µM throughout. The TGI is over 16.5 µM in the assay with IGROV1 ovarian, over 14.8 µM with SF-539 CNS, over 18.5 µM in the assay on HT29 colon and over 50 µM in the assay on OVCAR-5 ovarian.
With `C=CC[n+]1c(/C=C2\Sc3ccccc3N2C)sc(-c2ccccc2)c1-c1ccccc1`, the GI50 in the assay with OVCAR-8 ovarian is 0.338 µM; with SW-620 colon, 0.366 µM; in the assay on TK-10 renal, 0.307 µM; with MOLT-4 leukemia it was 0.431 µM; in the assay with SF-268 CNS it was 0.405 µM; in the assay on K-562 leukemia it was 0.344 µM. Further, the GI50 in the assay on IGROV1 ovarian is 0.45 µM; with SF-539 CNS, 0.411 µM; in the assay on HT29 colon, 0.306 µM; in the assay with OVCAR-5 ovarian it was 0.383 µM. Also, the TGI in the assay on OVCAR-8 ovarian was 10.9 µM; with SW-620 colon it was 13.3 µM; in the assay with TK-10 renal it was 3.35 µM; with MOLT-4 leukemia, 4.29 µM; in the assay with SF-268 CNS it was 15.6 µM; with K-562 leukemia, 10 µM. Further, the TGI was 13.7 µM with IGROV1 ovarian, 12.5 µM with SF-539 CNS, 6.1 µM in the assay with HT29 colon and 12.6 µM in the assay with OVCAR-5 ovarian.
Take `CC(C)n1c2c(c3ccccc3c1=O)C(=O)c1ccccc1-2`: the TGI in the assay on OVCAR-8 ovarian, in the assay on SW-620 colon, in the assay on TK-10 renal, in the assay with MOLT-4 leukemia, with SF-268 CNS and with K-562 leukemia was over 100 µM throughout. The TGI in the assay with IGROV1 ovarian, in the assay on SF-539 CNS, with HT29 colon and with OVCAR-5 ovarian was over 100 µM in each case.
`COc1ccc2c(c1)Cc1cc(N=[N+]([O-])c3ccc4c(c3)Cc3cc(OC)ccc3-4)ccc1-2`: the TGI with OVCAR-8 ovarian, in the assay with SW-620 colon, in the assay on TK-10 renal, with MOLT-4 leukemia, in the assay on SF-268 CNS and in the assay with K-562 leukemia was over 100 µM in each case. For the same compound, the TGI was 55.2 µM with IGROV1 ovarian, 28.5 µM in the assay on SF-539 CNS, 32.9 µM in the assay with HT29 colon and over 100 µM in the assay with OVCAR-5 ovarian.
Take `COC(=O)c1ccc2c(c1)[n+](=O)c(C(C)=O)c(C(F)(F)F)n2[O-]`: the GI50 with OVCAR-8 ovarian is 2.87 µM; in the assay on SW-620 colon, 1.95 µM; in the assay on TK-10 renal, 2.77 µM; in the assay on MOLT-4 leukemia it was 2.95 µM; in the assay with SF-268 CNS, 1.76 µM; in the assay on K-562 leukemia, 2.31 µM. The GI50 with IGROV1 ovarian was 1.75 µM; with SF-539 CNS, 1.85 µM; in the assay on HT29 colon it was 1.73 µM; with OVCAR-5 ovarian it was 1.67 µM. The TGI worked out at 8.28 µM with OVCAR-8 ovarian; 3.83 µM in the assay with SW-620 colon; 6.05 µM with TK-10 renal; 17.6 µM with MOLT-4 leukemia; 3.24 µM in the assay on SF-268 CNS; 7.7 µM with K-562 leukemia. Besides, the TGI in the assay on IGROV1 ovarian was found to be 3.39 µM; with SF-539 CNS it was 3.36 µM; in the assay on HT29 colon, 3.25 µM; with OVCAR-5 ovarian, 3.11 µM.
As to `O=C(Nc1ccc(Cl)cc1Cl)c1c/c(=N\O)c2ccc(O)cc2o1`, the TGI with OVCAR-8 ovarian, with SW-620 colon, with TK-10 renal, in the assay with MOLT-4 leukemia, in the assay on SF-268 CNS and in the assay with K-562 leukemia was over 100 µM throughout. For the same compound, the TGI in the assay on IGROV1 ovarian, in the assay on SF-539 CNS, in the assay with HT29 colon and in the assay with OVCAR-5 ovarian was over 100 µM throughout.
Consider `O=C(O)C(=O)/C=C\c1ccc(Cl)cc1`, for which the TGI with OVCAR-8 ovarian was over 100 µM; with SW-620 colon, 27 µM; with TK-10 renal, over 100 µM; in the assay with MOLT-4 leukemia, over 100 µM; with SF-268 CNS, over 100 µM; in the assay on K-562 leukemia, over 100 µM. For the same compound, the TGI in the assay on IGROV1 ovarian, in the assay with SF-539 CNS, in the assay on HT29 colon and in the assay on OVCAR-5 ovarian was over 100 µM in each case.
